We go through 1 molecule from ChEMBL document CHEMBL4364246, “Synthesis and biological evaluation of 5-aminoethyl benzophenanthridone derivatives as DNA topoisomerase IB inhibitors” (Eur J Med Chem, 2019).

By inhibition in vivo is commonly meant how much of the control response was suppressed. By AUC(0-t) is commonly meant the area under the concentration-time curve up to a stated or last time point. A higher AUC(0-t) goes with more exposure. In general, MRT inf refers to the average time that molecules of a dose stay in the body. The term GI50 denotes the concentration at which growth is held to half of that of the control. Broadly, the Cmax is the highest concentration seen after dosing. Broadly, the LD50 is the dose expected to kill half of the subjects tested.

The source made the active and inactive calls. The calls are words filed in the database; no cut-off is given here.

The test system of data set [1] is MCF7. Nature of the data set: Antitumour activity against human MCF7 cells xenografted in athymic nude nu/nu mouse assessed as inhibition in tumor weight at 20 mg/kg administrated daily by caliper method relative to control. It is filed as functional.
Data set [2] is described as follows: Solubility of the compound in DMSO. It is filed as physicochemical.
Data set [3] deals with HCT-116. Nature of the data set: Antitumour activity against human HCT116 cells xenografted in athymic nude nu/nu mouse assessed as inhibition in tumor weight at 20 mg/kg administrated daily by caliper method relative to control. It is filed as functional. A general note: In xenograft studies the graft and the host belong to different species.
Data set [4] deals with HCT-116. The data set is described as follows: Induction of apoptosis in human HCT116 cells assessed as viable cells at 2 uM incubated for 24 hrs by FITC and PI staining based flow cytometric analysis (reference value: 99.27%). It is filed as functional. The following applies: HCT-116, 24 h, read-out: Activity. For orientation: A flow cytometer gives signals particle by particle.

Data set [5] can be described thus: AUC (0 to t) in Sprague-Dawley rat at 1 mg/kg, iv measured for 0.083 to 4 hrs by LC-MS/MS analysis. It is filed as ADME, organism-based. Also on record: time 0.083-4 hr, dose 1 mg/kg, route intravenous. Conditions: in vivo.
In data set [6] the test system is HCT-116. The data set is described as follows: Antitumour activity against human HCT116 cells xenografted in athymic nude nu/nu mouse assessed as inhibition in tumor weight at 5 mg/kg administrated daily by caliper method relative to control. It is filed as functional.
The test system of data set [7] is MCF7. Nature of the data set: Antitumour activity against human MCF7 cells xenografted in athymic nude nu/nu mouse assessed as inhibition in tumor weight at 5 mg/kg administrated daily by caliper method relative to control. It is filed as functional.
A short description of data set [8]: MRT (0 to infinity) in Sprague-Dawley rat at 1 mg/kg, iv measured for 0.083 to 4 hrs by LC-MS/MS analysis. Conditions: in vivo.
The subject of data set [9] is HCT-116. The data set is described as follows: Antitumour activity against human HCT116 cells xenografted in ip dosed athymic nude nu/nu mouse assessed as reduction in tumor volume administrated daily by caliper method. It is filed as functional, organism-based.
Data set [10] in a line: Acute toxicity in Kunming mouse assessed as animal survival at 122.9 mg/kg, ip administrated as single dose measured for 7 days post administration. It is filed as organism-based. The following applies: in vivo.
Data set [11] has as its system HCT-116. The data set is described as follows: Induction of apoptosis in human HCT116 cells assessed as viable cells at 0.5 uM incubated for 24 hrs by FITC and PI staining based flow cytometric analysis (reference value: 99.27%). It is filed as functional. The following applies: HCT-116, 24 h, read-out: Activity.
Data set [12] has as its system MCF7. Nature of the data set: Antitumour activity against human MCF7 cells xenografted in athymic nude nu/nu mouse assessed as inhibition in tumor weight at 10 mg/kg administrated daily by caliper method relative to control. It is filed as functional.
In data set [13] the target is T1, DNA topoisomerase 1 (Homo sapiens) (UniProt P11387).
T1 sequence (whole entry): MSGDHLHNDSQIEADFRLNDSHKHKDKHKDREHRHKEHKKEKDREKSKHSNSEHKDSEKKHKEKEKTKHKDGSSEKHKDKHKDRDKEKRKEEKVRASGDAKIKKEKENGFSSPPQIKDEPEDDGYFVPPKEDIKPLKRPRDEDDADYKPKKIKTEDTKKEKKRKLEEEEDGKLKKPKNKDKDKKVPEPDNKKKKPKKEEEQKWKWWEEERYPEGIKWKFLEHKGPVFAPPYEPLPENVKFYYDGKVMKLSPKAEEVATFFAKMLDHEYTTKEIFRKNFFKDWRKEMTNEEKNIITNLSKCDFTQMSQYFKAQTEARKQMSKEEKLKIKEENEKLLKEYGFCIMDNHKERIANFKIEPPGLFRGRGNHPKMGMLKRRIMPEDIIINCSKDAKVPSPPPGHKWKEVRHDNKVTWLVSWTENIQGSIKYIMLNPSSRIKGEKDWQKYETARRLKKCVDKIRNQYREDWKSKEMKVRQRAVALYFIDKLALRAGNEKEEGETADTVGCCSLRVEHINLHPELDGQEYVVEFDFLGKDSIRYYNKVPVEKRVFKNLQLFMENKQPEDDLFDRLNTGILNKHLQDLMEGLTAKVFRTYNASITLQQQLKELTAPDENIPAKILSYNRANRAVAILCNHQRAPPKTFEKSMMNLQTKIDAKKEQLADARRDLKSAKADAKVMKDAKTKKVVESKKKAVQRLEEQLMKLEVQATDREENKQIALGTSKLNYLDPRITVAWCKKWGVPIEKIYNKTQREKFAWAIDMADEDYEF
The data set is described as follows: Inhibition of TOP1 in human HCT116 cells assessed as induction of cellular TOP1cc formation at 25 uM incubated for 1 hr by chemiluminescence based assay. It is filed as cell-based.

Data set [14] has as its system HCT-116. Nature of the data set: Growth inhibition of human HCT116 cells expressing siTOP1 incubated for 72 hrs by MTT assay. It is filed as functional. Conditions: HCT-116, 72 h. (Tetrazolium dyes change colour on reduction, which living cells bring about.)
The subject of data set [15] is HCT-116. The data set is described as follows: Antitumour activity against human HCT116 cells xenografted in athymic nude nu/nu mouse assessed as inhibition in tumor weight at 10 mg/kg administrated daily by caliper method relative to control. It is filed as functional.
Data set [16] has as its target T1, DNA topoisomerase 1 (Homo sapiens). Nature of the data set: Inhibition of TOP1 in human HCT116 cells assessed as induction of DNA damage by measuring increase in gammaH2AX foci at 1 uM incubated for 3 hrs by DAPI staining based immunofluorescence microscopic method. It is filed as cell-based.
Data set [17] concerns HCT-116. Nature of the data set: Induction of apoptosis in human HCT116 cells assessed as increase in apoptotic cells incubated for 24 hrs by FITC and PI staining based flow cytometric analysis. It is filed as functional, cell-based.
A short description of data set [18]: Cmax in Sprague-Dawley rat at 5 mg/kg, ig measured for 0.083 to 4 hrs by LC-MS/MS analysis. It is filed as ADME, organism-based. More on the design: dose 5 mg/kg, route […]. The following applies: in vivo, po.
Data set [19] is described as follows: Acute toxicity in ip dosed Kunming mouse assessed as mortality administrated for 7 days. It is filed as organism-based. The following applies: in vivo, 168 h.
Data set [20] deals with T1, DNA topoisomerase 1 (Homo sapiens). Nature of the data set: Inhibition of TOP1 in human HCT116 cells assessed as induction of cellular TOP1cc formation incubated for 1 hr by chemiluminescence based assay. It is filed as cell-based.
Data set [21] can be described thus: AUC (0 to t) in Sprague-Dawley rat at 5 mg/kg, ig measured for 0.083 to 4 hrs by LC-MS/MS analysis. It is filed as ADME, organism-based. Also on record: time upper 4 hr, dose 5 mg/kg, time lower 0.083 hr, route […]. The following applies: in vivo, po.
In data set [22] the test system is MCF7. Nature of the data set: Antitumour activity against human MCF7 cells xenografted in ip dosed athymic nude nu/nu mouse assessed as reduction in tumor volume administrated daily by caliper method. It is filed as functional, organism-based.
Data set [23] relates to HCT-116. Nature of the data set: Induction of apoptosis in human HCT116 cells assessed as viable cells at 1 uM incubated for 24 hrs by FITC and PI staining based flow cytometric analysis (reference value: 99.27%). It is filed as functional. The following applies: HCT-116, 24 h, read-out: Activity.

As to `CNCCn1c(=O)c2cc(OC)c(OC)cc2c2ccc3cc4c(cc3c21)OCO4`, the inhibition in vivo at 20 mg/kg with MCF7 [1] worked out at 71.8%; in the data set with HCT-116 [3], 76.9%. Also, in data set [2], the solubility entry is given as “Soluble”. The viability at 2 µM in the data set on HCT-116 [4] turned out to be 69.4%. The AUC(0-t) in data set [5] was determined as 47.2 ng·h/mL. The inhibition in vivo at 5 mg/kg came out at 49.3% in the data set with HCT-116 [6] and 44% in the data set with MCF7 [7]. In [8], this molecule showed an MRT inf of 1.46 h. Moreover, the inhibition entry with HCT-116 [9] and in the data set with MCF7 [22] was “Dose-dependent effect” each time. Also, the survival at 168 h in data set [10] worked out at 100%. Further, the viability at 0.5 µM in the data set on HCT-116 [11] came out at 93.3%. The inhibition in vivo at 10 mg/kg was found to be 56.9% with MCF7 [12] and 64.5% in the data set on HCT-116 [15]. For the same molecule, the outcome in [13] and in [16] was Active. This molecule came in with a 50% growth inhibitory concentration (GI50) with HCT-116 [14] of 320 nM. The Activity entry (with HCT-116 [17]; in data set [20]) was “Dose-dependent effect” throughout. For the same molecule, the Cmax in [18] was 19 ng/mL. In data set [19], the LD50 is 192 mg/kg. Also, the AUCt in data set [21] came out at 48.3 ng·h/mL. Moreover, the viability at 1 µM in the data set on HCT-116 [23] stood at 88.1%.
